Data on 40 compounds can be found in US20250171438A1 (Agios Pharmaceuticals, Inc., priority 2022, published 2025).

For one assay, the target named is T1, human PAH with the R408W mutation (Homo sapiens, UniProt P00439, R408W).
T1 construct: expressed in transfected cells
T1 sequence (P00439 1-452 R408W): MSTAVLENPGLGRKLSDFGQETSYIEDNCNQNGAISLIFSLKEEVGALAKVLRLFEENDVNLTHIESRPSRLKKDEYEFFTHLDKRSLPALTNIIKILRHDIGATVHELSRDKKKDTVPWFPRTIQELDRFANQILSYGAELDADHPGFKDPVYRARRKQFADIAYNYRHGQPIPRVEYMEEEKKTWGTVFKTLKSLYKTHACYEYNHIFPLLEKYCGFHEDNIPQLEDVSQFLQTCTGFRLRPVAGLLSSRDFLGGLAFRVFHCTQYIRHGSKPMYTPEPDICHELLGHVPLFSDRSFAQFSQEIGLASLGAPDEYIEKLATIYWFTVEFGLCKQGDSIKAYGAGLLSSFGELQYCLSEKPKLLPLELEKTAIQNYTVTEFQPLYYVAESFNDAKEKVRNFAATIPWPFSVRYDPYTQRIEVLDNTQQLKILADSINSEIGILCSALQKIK
The assay is described as follows: Cell Based Phenylalanine Flux Assay. Particulars: A375 cells expressing human R408W PAH; 24 hrs compound incubation; 13C-Tyrosine by LC-MS; average where tested multiple times; read-out: AC50.
In the case of `Cn1cc(-c2nnc(C(=O)N3CCc4[nH]cnc4[C@@H]3c3nc4c(F)cccc4s3)o2)c(C(F)(F)F)n1` [Example 1928, (R)-(4-(4-fluorobenzo[d]thiazol-2-yl)-6,7-dihydro-1H-imidazo[4,5-c]pyridin-5(4H)-yl)(5-(1-methyl-3-(trifluoromethyl)-1H-pyrazol-4-yl)-1,3,4-oxadiazol-2-yl)methanone], the AC50 was in the range of 1000 to 5000 nM. Same read-out and setting: the value for “(R,Z)-1-(4-(1H-benzo[d]imidazol-2-yl)-6,7-dihydro-1H-imidazo[4,5-c]pyridin-5(4H)-yl)-2-(5-(prop-1-en-1-yl)-4-vinylthiazol-2-yl)ethanone [Example 904]” was greater than 5000 nM; that for `CCn1ncnc1C(=O)N1CCc2[nH]cnc2[C@H]1c1nc2c(F)cccc2s1` [Example 1959] was less than 500 nM; that for `O=C(c1ocnc1C(F)(F)F)N1CCc2[nH]cnc2[C@H]1c1nc2ccccc2s1` [Example 1325] was less than 500 nM. For `Cn1ncnc1C(=O)N1CCc2[nH]cnc2[C@@H]1c1nc2ccccc2s1` [Example 1814, (R)-(4-(benzo[d]thiazol-2-yl)-6,7-dihydro-1H-imidazo[4,5-c]pyridin-5(4H)-yl)(1-methyl-1H-1,2,4-triazol-5-yl)methanone], the AC50 is greater than 5000 nM. Still for that read-out and setting: the value for `O=C(c1cnc(-c2ccccn2)o1)N1CCc2[nH]cnc2[C@@H]1c1nc2ccccc2s1` [Example 1318, (R)-(4-(benzo[d]thiazol-2-yl)-6,7-dihydro-1H-imidazo[4,5-c]pyridin-5(4H)-yl)(2-(pyridin-2-yl)oxazol-5-yl)methanone] was 1000 to 5000 nM; that for `O=C(c1oc(CCN2CC(F)C2)nc1C(F)(F)F)N1CCc2[nH]cnc2[C@@H]1c1nc2ccccc2s1` [Example 1576, (R)-(4-(benzo[d]thiazol-2-yl)-6,7-dihydro-1H-imidazo[4,5-c]pyridin-5(4H)-yl)(2-(2-(3-fluoroazetidin-1-yl)ethyl)-4-(trifluoromethyl)oxazol-5-yl)methanone] was less than 500 nM; that for `O=C(c1ocnc1C(F)(F)F)N1CCCc2[nH]cnc2[C@H]1c1nc2ccccc2s1` [Example 2131, (S)-(4-(benzo[d]thiazol-2-yl)-7,8-dihydroimidazo[4,5-c]azepin-5(1H,4H,6H)-yl)(4-(trifluoromethyl)oxazol-5-yl)methanone] was 500 to 1000 nM. Turning to `C[C@H](O)c1nc(C(F)F)c(C(=O)N2CCc3[nH]cnc3[C@H]2c2nc3c(F)cccc3s2)o1` [Example 1961, (4-(difluoromethyl)-2-((S)-1-hydroxyethyl)oxazol-5-yl) ((S)-4-(4-fluorobenzo[d]thiazol-2-yl)-6,7-dihydro-1H-imidazo[4,5-c]pyridin-5(4H)-yl)methanone], the AC50 was less than 500 nM.

On to `Cc1nc(C(C)(C)O)oc1C(=O)N1CCc2[nH]cnc2[C@H]1c1nc2ccccc2s1` [Example 1469], for which the AC50 is less than 500 nM.

In the case of `C[C@@H]1CN(C(=O)c2ocnc2C2CC2)[C@@H](c2nc3c(F)cccc3s2)c2nc[nH]c21` [Example 1552, (4-cyclopropyloxazol-5-yl)((4R,7R)-4-(4-fluorobenzo[d]thiazol-2-yl)-7-methyl-6,7-dihydro-1H-imidazo[4,5-c]pyridin-5(4H)-yl)methanone], the AC50 lay within 1000 to 5000 nM.

Regarding `O=C(c1oc(-c2ccccn2)nc1C(F)(F)F)N1CCCc2[nH]cnc2[C@H]1c1nc2ccccc2s1` [Example 2121, (S)-(4-(benzo[d]thiazol-2-yl)-7,8-dihydroimidazo[4,5-c]azepin-5(1H,4H,6H)-yl)(2-(pyridin-2-yl)-4-(trifluoromethyl)oxazol-5-yl)methanone], the concentration at half-maximal activity (AC50) was in the range of 500 to 1000 nM. Same read-out and setting: the value for `O=C(c1oc(-c2ccccn2)nc1C1CC1)N1CCc2[nH]cnc2[C@H]1c1nc2cccc(F)c2s1` [Example 1558] was less than 500 nM; that for `C[C@H](O)c1nc(C(F)F)c(C(=O)N2CCc3[nH]cnc3[C@@H]2c2nc3c(C(F)(F)F)cccc3s2)o1` [Example 2114, (4-(difluoromethyl)-2-((S)-1-hydroxyethyl)oxazol-5-yl)((R)-4-(4-(trifluoromethyl)benzo[d]thiazol-2-yl)-6,7-dihydro-1H-imidazo[4,5-c]pyridin-5(4H)-yl)methanone] was 500 to 1000 nM; that for `O=C(CC1CC(F)(F)C1)N1CCc2[nH]cnc2[C@H]1c1nc2ccccc2s1` [Example 1277] was less than 500 nM. For the compound `O=C(c1oc(-c2ccccn2)nc1C1CC1)N1CCc2[nH]cnc2[C@H]1c1nc2ccccc2[nH]1` [Example 995, (S)-(4-(1H-benzo[d]imidazol-2-yl)-6,7-dihydro-1H-imidazo[4,5-c]pyridin-5(4H)-yl)(4-cyclopropyl-2-(pyridin-2-yl)oxazol-5-yl)methanone], the AC50 lay in the range of 500 to 1000 nM. The same measure, in the same setting: the value for `O=C(c1cc2cccnn2c1)N1CCc2[nH]cnc2[C@H]1c1nc2ccccc2s1` [Example 1127] was 500 to 1000 nM; that for `O=C(c1ccnn1-c1ccccn1)N1CCc2[nH]cnc2[C@H]1c1nc2ccccc2s1` [Example 1855] was less than 500 nM; that for `O=C(c1oc(CN2CCOCC2)nc1C(F)(F)F)N1CCc2[nH]cnc2[C@H]1c1nc2ccccc2s1` [Example 1627] was less than 500 nM. The same measure, in the same setting: the value for `CC(C)(O)c1nc(C(F)(F)F)c(C(=O)N2CCCc3[nH]cnc3[C@H]2c2nc3ccccc3s2)o1` [Example 2123, (S)-(4-(benzo[d]thiazol-2-yl)-7,8-dihydroimidazo[4,5-c]azepin-5(1H,4H,6H)-yl)(2-(2-hydroxypropan-2-yl)-4-(trifluoromethyl)oxazol-5-yl)methanone] was 1000 to 5000 nM; that for `N#Cc1ccn2ncc(C(=O)N3CCc4[nH]cnc4[C@@H]3c3nc4c(F)cccc4s3)c2c1` [Example 1250, (R)-3-(4-(4-fluorobenzo[d]thiazol-2-yl)-4,5,6,7-tetrahydro-1H-imidazo[4,5-c]pyridine-5-carbonyl)pyrazolo[1,5-a]pyridine-5-carbonitrile] was 1000 to 5000 nM; that for `O=C(c1nncs1)N1CCc2[nH]cnc2[C@@H]1c1nc2ccc(Br)cc2[nH]1` [Example 978, (R)-(4-(6-bromo-1H-benzo[d]imidazol-2-yl)-6,7-dihydro-1H-imidazo[4,5-c]pyridin-5(4H)-yl)(1,3,4-thiadiazol-2-yl)methanone] was greater than 5000 nM.

Turning to `O=C(CC1CC1)N1CCc2[nH]cnc2[C@H]1c1nc2ccc(F)cc2s1` [Example 1117, (S)-2-cyclopropyl-1-(4-(6-fluorobenzo[d]thiazol-2-yl)-6,7-dihydro-1H-imidazo[4,5-c]pyridin-5(4H)-yl)ethanone], the AC50 was less than 500 nM.

As to `N#Cc1ccn2ncc(C(=O)N3CCc4[nH]cnc4[C@H]3c3nc4c(F)cccc4s3)c2c1` [Example 1249, (S)-3-(4-(4-fluorobenzo[d]thiazol-2-yl)-4,5,6,7-tetrahydro-1H-imidazo[4,5-c]pyridine-5-carbonyl)pyrazolo[1,5-a]pyridine-5-carbonitrile], the concentration at half-maximal activity (AC50) fell in the range of 500 to 1000 nM. As for `CC(C)(O)c1nc(C(F)(F)F)c(C(=O)N2CCc3[nH]cnc3[C@H]2c2nc3ccccc3s2)o1` [Example 1553], the AC50 was less than 500 nM. For `C[C@@H](O)c1nc(C(F)F)c(C(=O)N2CCc3[nH]cnc3[C@@H]2c2nc3c(F)cccc3s2)o1` [Example 1979, (4-(difluoromethyl)-2-((R)-1-hydroxyethyl)oxazol-5-yl)((R)-4-(4-fluorobenzo[d]thiazol-2-yl)-6,7-dihydro-1H-imidazo[4,5-c]pyridin-5(4H)-yl)methanone], the AC50 is 500 to 1000 nM. Same read-out and setting: the value for `Cc1nc(C(C)(C)O)oc1C(=O)N1CCc2[nH]cnc2[C@H]1c1nc2c(C(F)(F)F)cccc2s1` [Example 2115, (S)-(2-(2-hydroxypropan-2-yl)-4-methyloxazol-5-yl)(4-(4-(trifluoromethyl)benzo[d]thiazol-2-yl)-6,7-dihydro-1H-imidazo[4,5-c]pyridin-5(4H)-yl)methanone] was 500 to 1000 nM.

Still in this assay, the particulars now being: A375 cells expressing human R408W PAH; 24 hrs with compound; 13C-Tyrosine by LC-MS; average where tested multiple times; read-out: AC50.
As for `Cn1nc(-c2ccccn2)cc1C(=O)N1CCc2[nH]cnc2C1c1nc2c(F)cccc2s1` (stereo not shown), the AC50 fell in the range of 1000 to 5000 nM. Still for that read-out and setting: the value for `O=C(c1ncc(Cl)s1)N1CCc2[nH]cnc2C1c1nc2ccc(Cl)cc2[nH]1` (stereo not shown) was greater than 5000 nM; that for `O=C(c1cnn2cc(Br)ccc12)N1CCc2[nH]cnc2C1c1nc2ccc(Br)cc2[nH]1` (stereo not shown) was greater than 5000 nM. As to `Cc1nnc(CC(=O)N2CCc3[nH]cnc3C2c2nc3c(F)cccc3s2)s1` (stereo not shown), the concentration at half-maximal activity (AC50) lay in the range of 1000 to 5000 nM. The same measure, in the same setting: the value for `CC1CN(C(=O)c2cnc(N3CCOCC3)o2)C(c2nc3ccccc3s2)c2nc[nH]c21` (stereo not shown) was greater than 5000 nM; that for `O=C(Cc1nc(C(F)(F)F)cs1)N1CCc2[nH]cnc2C1c1nc2cc(F)ccc2s1` (stereo not shown) was 1000 to 5000 nM. On the same count and under the same terms, the value for `[2H]C([2H])([2H])OCc1cc(C(=O)N2CCc3[nH]cnc3C2c2nc3c(F)cccc3s2)n(C)n1` (stereo not shown) was 1000 to 5000 nM; that for `CNC(=O)N1CC(C(=O)N2CCc3[nH]cnc3C2c2nc3ccccc3s2)C1` (stereo not shown) was greater than 5000 nM. On the same count and under the same terms, the value for `O=C(c1nc2ccc(F)cc2s1)N1CCc2[nH]cnc2C1c1nc2ccccc2s1` (stereo not shown) was greater than 5000 nM; that for `O=C(Cc1nc2ccccc2s1)N1CCc2[nH]cnc2C1c1nc2ccccc2s1` (stereo not shown) was 1000 to 5000 nM; that for `CN(C)Cc1ccc2c(C(=O)N3CC4(CC4)c4[nH]cnc4C3c3nc4ccccc4s3)cnn2c1` (stereo not shown) was greater than 5000 nM.

As for `Cc1nc(N2CCOCC2)oc1C(=O)N1CCCc2[nH]cnc2C1c1nc2ccccc2s1` (stereo not shown), the AC50 is 1000 to 5000 nM. Turning to `O=C(c1nncs1)N1CCc2[nH]cnc2C1c1nc2ccc(F)cc2s1` (stereo not shown), the AC50 is 1000 to 5000 nM.
